Measured values reported in patent publication US9868705B2, “Tetra-aryl cyclobutane inhibitors of androgen receptor action for the treatment of hormone refractory cancer” (The Board of Trustees of the University of Illinois, priority 2013, dated 2018).
Numbering of substitutions follows the chain as printed. Read-outs that look alike come from different tables or passages of the source.

Legend:
[1] = target: T1, wild type AR (Homo sapiens, UniProt P10275); assay: MMTV-luciferase transcription assay in CV-1 cells, wild type AR; format: cell-based; settings: CV1 transient transfection, MMTV-Luciferase reporter; read-out: IC50 WT
T1 construct: expressed in transfected cells; host or cells: CV-1
T1 sequence (P10275 1-920): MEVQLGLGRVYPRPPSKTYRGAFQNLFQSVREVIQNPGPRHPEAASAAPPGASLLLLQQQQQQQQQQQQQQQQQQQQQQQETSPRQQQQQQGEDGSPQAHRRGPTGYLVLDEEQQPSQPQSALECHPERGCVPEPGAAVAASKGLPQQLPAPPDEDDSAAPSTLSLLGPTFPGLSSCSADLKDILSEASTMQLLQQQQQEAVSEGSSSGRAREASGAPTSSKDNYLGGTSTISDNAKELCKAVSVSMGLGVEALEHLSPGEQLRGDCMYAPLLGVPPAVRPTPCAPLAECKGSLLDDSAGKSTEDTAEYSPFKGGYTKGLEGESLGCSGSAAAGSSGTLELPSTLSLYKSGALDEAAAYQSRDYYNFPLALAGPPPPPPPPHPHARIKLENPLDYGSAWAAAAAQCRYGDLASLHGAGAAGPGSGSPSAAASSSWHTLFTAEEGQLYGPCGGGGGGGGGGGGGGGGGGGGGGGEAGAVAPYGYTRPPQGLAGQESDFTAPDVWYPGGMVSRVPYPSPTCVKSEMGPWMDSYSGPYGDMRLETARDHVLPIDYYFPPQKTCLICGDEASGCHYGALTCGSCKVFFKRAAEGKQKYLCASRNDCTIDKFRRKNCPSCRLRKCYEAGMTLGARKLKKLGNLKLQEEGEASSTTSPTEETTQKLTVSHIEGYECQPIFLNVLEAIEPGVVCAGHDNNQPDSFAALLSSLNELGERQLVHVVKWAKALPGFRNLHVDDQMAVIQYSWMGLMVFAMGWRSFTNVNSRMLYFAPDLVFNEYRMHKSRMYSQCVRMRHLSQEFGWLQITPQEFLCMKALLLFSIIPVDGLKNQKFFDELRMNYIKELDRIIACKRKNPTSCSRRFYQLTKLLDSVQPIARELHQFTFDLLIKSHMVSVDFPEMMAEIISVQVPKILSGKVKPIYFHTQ
Text: (§1) These compounds were screened using an AR-responsive MMTV transcription assay in CV-1 cells, utilizing both wild type and T877A (LNCaP) AR. […]

[2] = target: T2, T877A (LNCaP) AR (Homo sapiens, UniProt P10275, T878A); assay: MMTV-luciferase transcription assay in CV-1 cells, T877A AR; format: cell-based
T2 construct: expressed in transfected cells; host or cells: CV-1
T2 sequence (P10275 1-920 T878A): T1 sequence (P10275 1-920) with T878A
Text: as §1

[3] = target: T3, W741C AR (Homo sapiens, UniProt P10275, W742C); assay: MMTV-luciferase transcription assay in CV-1 cells, W741C AR
T3 sequence (P10275 1-920 W742C): T1 sequence (P10275 1-920) with W742C

[4] = system: XIP-AR cells; assay: XIP-AR cell proliferation; settings: XIP-AR overexpressing cells
[5] = system: androgen receptor; assay: Whole-cell competition binding assay using 3H-R1881; settings: whole cells; mutant AR and WT-AR
[6] = target: T4, AR (Homo sapiens, UniProt P10275); assay: Cellular location of AR by microscopy
T4 sequence (P10275 1-920): T1 sequence (P10275 1-920)

[7] = system: LNCaP (AR-T877A) xenograft; assay: LNCaP xenograft model of prostate cancer in mice; format: in vivo
Text: Our goal in this example is to identify small molecules that block activity of mutant androgen receptors (ARs) but not wild type AR, by synthesizing a library of compounds, to explore possible mechanisms of action, and to evaluate therapeutic potential. A total of 75 tetra-aryl substituted cyclobutanes (CBs) were synthesized. FIG. 18 illustrates a general reaction scheme for the synthesis of some of these compounds from the photo cycloaddition of 2,4-dichloro-6-styrylpyrimidine. FIG. 19 illustrates a general reaction scheme for the synthesis from the photo cycloaddition of 2,4-disubstituted 6-styrylpyrimidines. LNCaP cell proliferation was evaluated. LNCaP cells are a cell line of human cells commonly used in the field of oncology. LNCaP cells are androgen-sensitive human prostate adenocarcinoma cells derived from the left supraclavicular lymph node metastasis from a person in 1977. They are adherent epithelial cells growing in aggregates and as single cells. […] . FIGS. 21A, B, C, and D are graphic summaries of the results for cyclobutane compound CB-7. […] Prostate cancer was the most common tumor among men in the United States in 2012, with over 240,000 diagnoses and approximately 28,000 deaths. […] . FIG. 23 illustrates the androgen receptor ligand binding domain bound to testosterone. FIG. 24 illustrates mouse survival data from a mutant androgen receptor-T877A xenograft experiment for CB-7 at various concentrations. […] . FIGS. 25A and B provide data on AR mutant selectivity for compounds CB-1 to CB-8. […] It is seen that the cyclobutanes show selectivity of mutant androgen receptor activation in the luciferase transcriptional assay in CV-1 cells (a commercially available cell line derived from the kidney of an African green monkey). FIGS. 26 and 27A and B illustrate data from a ligand competition assay for compounds CB-1, CB-6, and CB-7.
Based on the above results, we further evaluated the effects of CB 10 in vivo. […] We also utilized a traditional in vivo model of prostate cancer, the LNCaP xenograft model.

[8] = system: LNCaP cells; assay: LNCaP cell proliferation; settings: androgen-stimulated LNCaP cells
[9] = target: T4, AR; assay: AR target gene expression in XIP-AR cells; settings: in the presence of R1881
[10] = target: T4, AR; assay: Chromatin immunoprecipitation of AR at androgen-response elements in XIP-AR cells
[11] = system: wild type androgen receptor; assay: FKBP51 endogenous gene expression in LNCaP-AR cells (wild type AR overexpressed); format: cell-based, human; settings: at 20 M (so in the source)
Text: (§2) FIG. 44 depicts data for dose-dependent inhibition of androgen receptor-dependent endogenous gene expression of FKBP51 by Compound 1 of Example IV in LNCaP cells producing exclusively T877A mutant androgen receptor (LNCaP-XIP) and LNCaP cells transfected with wild type androgen receptor (LNCaP-androgen receptor, ratio of wild type to T877A receptor is ca. 3:1).
(§3) To more fully characterize the selectivity of compound 1 for the mutant receptor, we measured its inhibitory potential against the WT and T877A mutant receptor in an AR-dependent luciferase transcription assay in CV-1 cells (FIGS. 43A and B).

[12] = target: T5, T877A mutant androgen receptor (Homo sapiens, UniProt P10275, T878A); assay: FKBP51 endogenous gene expression in LNCaP-XIP cells; format: cell-based; settings: FKBP51 expression, T877A mutant receptor
T5 construct: endogenous in cells; host or cells: LNCaP-XIP
T5 sequence (P10275 1-920 T878A): T1 sequence (P10275 1-920) with T878A
Text: as §2, §3

[13] = target: T4, AR; assay: AR relative binding affinity (RBA)
[14] = LNCaP (AR-T877A) xenograft, concentrations comparable to MDV3100

CNc1cc([C@H]2[C@H](c3ccccc3)[C@H](c3cc(NC)nc(NC)n3)[C@H]2c2ccccc2)nc(NC)n1 [CB-51]
IC50 [1]: > 20 µM
IC50 ([2]; CV1 transient transfection, MMTV-Luciferase reporter, read-out: IC50 T877A): > 20 µM
IC50 W741C ([3]; CV1 transient transfection, MMTV-Luciferase reporter): Toxic

CC(C)(O)C(=O)Nc1ccc([N+](=O)[O-])c(C(F)(F)F)c1 [OHF, hydroxyflutamide, reference compound]
cell proliferation, compound alone [4]: promote cell proliferation

Clc1nccc([C@H]2[C@H](c3ccccc3)[C@@H](c3ccnc(Cl)n3)[C@H]2c2ccccc2)n1 [CB 10]
competition with 3H-R1881 for binding to AR [5]: effectively compete against R1881 binding
cellular location of AR after treatment ([6]; microscopy): AR is primarily outside of the nucleus
tumor weight at study termination ([7]; escalating dose 5 mpk to 100 mpk): significant dose dependent inhibition of tumor growth
tumor growth ([7]; intact male mice bearing LNCaP xenografts, 50 mpk or 100 mpk): significantly inhibited
inhibition of LNCaP cell proliferation [8]: equally as well as MDV
reversal of androgen stimulated gene expression [9]: reverse androgen stimulated gene expression similar to MDV
AR recruitment to androgen-response elements of PSA and NKX3.1 [10]: inhibit the recruitment

COc1cc(C2C(c3ccccc3)C(c3cc(OC)nc(OC)n3)C2c2ccccc2)nc(OC)n1 (stereo not drawn) [CB 1]
competition with 3H-R1881 for binding to AR [5]: effectively compete against R1881 binding
reversal of androgen stimulated gene expression [9]: less effective

Cc1cc([C@H]2[C@H](c3ccccc3)[C@H](c3cc(C)nc(C)n3)[C@H]2c2ccccc2)nc(C)n1 [CB-49]
inhibition of FKBP51 gene expression [11]: ca. 80%
concentration at which maximal inhibition is obtained [12]: 6 µM
AR RBA [13]: 0.027%

COc1ccc(CNc2cc([C@H]3[C@H](c4ccccc4)[C@H](c4cc(NCc5ccc(OC)cc5)nc(NCc5ccc(OC)cc5)n4)[C@H]3c3ccccc3)nc(NCc3ccc(OC)cc3)n2)cc1 [CB-7]
competition with 3H-R1881 for binding to AR [5]: compete with 3H-R1881
survival of mice [7, 14]: increases survival of mice
tumor size [7, 14]: decreases tumor size

Clc1nccc([C@H]2[C@H](c3ccccc3)[C@@H](c3ccnc(Cl)n3)[C@H]2c2ccccc2)n1 [DPM-21]
increase in potency for T877A mutant over WT ([2]; AR-dependent luciferase transcription assay in CV-1 cells): approximately 100 fold
IC50 lower than 1 ([2]; T877A AR): approximately 10 fold
IC50 ([2]; read-out: IC50 for T877A AR): ~0.1 µM
increase in potency for W741C AR over WT receptor ([3]; AR-dependent luciferase transfection assay): approximately 10 fold

C[C@]1(O)CC[C@H]2[C@@H]3CCC4=CC(=O)CCC4=C3C=C[C@@]21C [R1881, reference compound]
cellular location of AR after treatment [6]: promote nuclear translocation
